In patent US20120202258A1, “LIGE-TYPE TRANSFORMANTS FOR BIOCONVERSION OF LIGNIN-DERIVED COMPOUNDS” (priority 2010, published 2012):

B1: LigF: S. paucimobilis beta-etherase, positive control polypeptide (protein)
chain: MTLKLYSFGPGANSLKPLATLYEKGLEFEQVFVDPSKFEQHSDWFKKINPRGQVPALWHDGKVVTESTVICEYLEDVFPESGNSLRPADPFKRAEMRVWTKWVDEYFCWCVSTIGWAFGIKAIAQKMSDEEFEEHINKNVPIPEQQLKWRRARNGFPQEMLDEEFRKVGVSVARLEETLSKQDYLVDTGYSLADICNFAIANGLQRPGGFFGDYVNQEKTPGLCAWLDRINARPAIKEMFEKSKREDLLKRQNEKVA
B2: LigG: S. paucimobilis glutathione-eliminating glutathione S transferase gene product (protein)
chain: MSGASARSLGKGSAPPGPVPEGQIRVYSMRFCPFAQRTLMVLKAKGIRHEIININLKNKPEWFFEKNPFGLVPVLENTQGHLITESVITCEYLDEAYPEKKLFPDDPYEKACQKMTFELFSKVPSLVTSFIRAKRKEDHPGIKEELKKEFSKLEEAMANKRTAFFGGNSLSMIDYLIWPWFQRLEALELNECIDHTPKLKLWMATMQEDPVASSHFIDAKTYRDYLSLYLQDSPEACDYGL
B3: ligE: S. paucimobilis beta-etherase, positive control polypeptide (protein)
chain: MARNNTITLYDLQLESGCTISPYVWRTKYALKHKGFDIDIVPGGFTGILERTGGRSERVPVIVDDGEWVLDSWVIAEYLDEKYPDRPMLFEGPTQKNLMKFLDNWLWSTAVGPWFRCYILDYHDLSLPQDRDYVRWSREQWFLGGQRLEDVQAGREDRLPLVPPTLEPFRRILAETKWLGGDQPNFADYSALAVFLWTASVARTPPLTEDDPLRDWLDRGFDLFDGLGRHPGMNPLFGLKLREGDPEPFVRQTGPAGAGGQALNKGPQTTKMPPRVAEKAD
B4: ligE1: N. aromaticivorans putative beta-etherase polypeptide, glutathione S-transferase-like protein, expressed in E. coli (protein)
chain: MAANNTITFYDLALSTGATISPFVWATKYALKHKGFDLDVVPGGFTGILERTGGKTERLPAIVDDGEFVLDSWGIVEYLDAKYPDRPVLIPHESVAATLKALDNWFWNAAVGPWMFCFCQDYRDLSLPQDHEYVTHSREKMLGRKLEEVQAGREERLPKISAALEPLRAALAQHQWLGGSSPNYADYRIMGGILFTASVCKTPVLANDDPLRDWIERCLDLYGGLGRHPGLFPLFGLEQREGDPDLFNRAAGQGGIYKRNTGPESTRAETQRITEGMKK
B5: ABD26530.1: N. aromaticivorans putative beta-etherase polypeptide (protein)
chain: MVIPLGEDNTIMLKLYSFGPAANSMKPLLTVFEKGLDVEKHRLDPAKFEHHTDWFKAINPRGQVPALVDGDKVVTESTVICEYLEDEYPTEVALRPADSFGKAQMRIWTKWVDEYFCWCVSTIGWHRYVGNMVKSLSDAEFEEKVKAIPVIEQQVKWRRAREGFPQDMLDEEMRKIAYSVRKLDDHLADHEWLVPGQYTLADICNFAIANGMQFGFAELVNKQDTPHLVRWIEQINERPAVKQMFAQVELEKLGPRE
B6: LigF2: N. aromaticivorans putative beta-etherase polypeptide, glutathione S-transferase-like protein (protein)
chain: MALKYYHAEPLANSLKSMVPLKEKGLAYESIYVDLHKFEQHQPWFTAINPEGQVPVLDHDGTIITHTTVINEYLEDAFPDAQPADAPLRPRDPVGAARMRYWNKFIDEHVMNYVSMHGWHRMVGVIARNIASGDFEKLLESIPLPDQRKKWATARSGFSEADLANATAKIEYALDKVEKQLGETKWLAGDTYTLADINFYSHCGAMVERMFPEMEVARRAPRLCEWRDRVAARPAVAEALKSEDRTAPGLRVWSGEVR
B7: ABD27309.1: N. aromaticivorans putative beta-etherase polypeptide (protein)
chain: MDEVSLYHWEPNANSGKPMLALMEKGVPFSSHYIDMLQFDQHKPEYLAINPQGTIPAMTHNGQVLTESTAIMEYVNDRFDGPDLMPADAQDRWRVRWWMKFMDQWLGPSFSMIGWSVFVGPMVRQRDPAELAAAIDRIPLPERRTAWRKAINGDFSESEMAESRRRVGLGIAKLEEELGKRPYVGSNQYSLADINIFNSTYSLPISQPDLAGKDRTPNIMRWLKRVYTREAVKKTWAMGKTDLAHRYGLIMAEIEG

Test system: Escherichia coli
Experiment: not given
Conditions: demonstrated; result in words; cited from earlier work
For `O=Cc1ccc(O)c(O)c1O` [2,3,4-trihydroxybenzaldehyde], the “antibacterial activity against Escherichia coli” value is listed as “antibacterial activity”. For `O=Cc1cccc(O)c1O` [2,3-dihydroxybenzaldehyde], the “antibacterial activity against Escherichia coli” value is listed as “antibacterial activity”. For `O=Cc1c(O)cc(O)cc1O` [2,4,6-trihydroxybenzaldehyde], the “antibacterial activity against Escherichia coli” value is given as “antibacterial activity”. For `O=Cc1ccc(O)cc1O` [2,4-dihydroxybenzaldehyde], the “antibacterial activity against Escherichia coli” value is given as “antibacterial activity”. For `O=Cc1cc(O)ccc1O` [2,5-dihydroxybenzaldehyde], the “antibacterial activity against Escherichia coli” value is listed as “antibacterial activity”. For `COc1cccc(C=O)c1O` [2-hydroxy-3-methoxybenzaldehyde], the “antibacterial activity against Escherichia coli” value is given as “antibacterial activity”. For `COc1ccc(O)c(C=O)c1` [2-hydroxy-5-methoxybenzaldehyde], the “antibacterial activity against Escherichia coli” value is listed as “antibacterial activity”. In the case of `O=Cc1ccccc1O` [2-hydroxybenzaldehyde], the “antibacterial activity against Escherichia coli” value is given as “antibacterial activity”. For `COc1cc(O)cc(OC)c1C=O` [4-hydroxy-2,6-dimethoxybenzaldehyde], the “antibacterial activity against Escherichia coli” value is listed as “antibacterial activity”.

Same assay, conditions: known; result in words; cited from earlier work
For `O=Cc1ccc(O)cc1` [4-hydroxybenzaldehyde], the “antimicrobial activity against Escherichia coli” value is given as “antimicrobial activity”. For `O=Cc1ccc(CO)o1` [5-hydroxymethylfurfural], the “antimicrobial activity against Escherichia coli” value is given as “antimicrobial activity”. For `O=Cc1ccco1` [furfural], the “antimicrobial activity against Escherichia coli” value is given as “antimicrobial activity”. For `COc1cc(C=O)cc(OC)c1O` [syringaldehyde], the “antimicrobial activity against Escherichia coli” value is listed as “antimicrobial activity”. For `COc1cc(C=O)ccc1O` [vanillin], the “antimicrobial activity against Escherichia coli” value is listed as “antimicrobial activity”.

Test system: not given
Experiment: not given
Conditions: FIG. 2B, S. paucimobilis LigDFEG gene cluster; result in words; cited from earlier work
For “LigD: S. paucimobilis C alpha-dehydrogenase gene product [reference compound]”, the “enzyme activity of gene product” value is given as “Cα-dehydrogenase activity”. In the case of B1, the “enzyme activity of gene product” value is listed as “β-etherase activity”. In the case of B2, the “enzyme activity of gene product” value is given as “glutathione lyase activity”. For B3, the “enzyme activity of gene product” value is given as “β-etherase activity”.

Test system: not listed separately
Experiment: in vitro beta-etherase biochemical assay on fluorescent substrate MUAV (4MU fluorescence), clarified E. coli cell extracts
Conditions: 0.1 mM MUAV substrate
Source text: The model substrate synthesis 150 for use in the biochemical screening for selective activity can be outsourced through a contract research organization (CRO). The enzyme discovery effort can initially be focused on identifying potential beta-etherase candidate genes identified through bioinformatic methods. […] The fluorescent substrate α-O-(β-methylumbelliferyl) acetovanillone (MUAV), for example, can be used in in vitro assays to identify beta-etherase function (Acme Biosciences, Mt. View, Calif.). The formation of 4 methylumbelliferone (4MU) upon hydrolysis of the aryl ether bond can be monitored by fluorescence, for example, at λex=365 nm and λem=450 nm (or 460 nm).
The enzyme screening 155 is done to identify novel etherases 160. […] Expression of the beta-etherase genes can be done in 5 ml or 25 ml samples of the recombinant E. coli strains in LB medium using induction with IPTG. Following induction, and cell harvest, cell pellets can be be lysed using the BPER (Invitrogen) cell lysis system. […] The formation of 4 methylumbelliferone (4MU) upon hydrolysis of the aryl ether bond in MUAV can be monitored by fluorescence at λex=365 nm and λem=460 nm, and can provide quantitative measurement of beta-etherase function. Cell extracts of E. coli transformed with the S. paucimobilis ligE and ligF genes can be the assay positive controls. Test or unknown samples can include, for example, E. coli strains expressing putative beta-etherase genes from N. aromaticovorans.
This example describes a method for gene expression in E. coli, as well as beta-etherase biochemical assays. Expression of known and putative beta-etherase genes was performed using 5 ml cultures of the recombinant E. coli strains described herein in Luria Broth medium by induction of gene expression using isopropylthiogalactoside (IPTG) to a final concentration of 0.1 mM. Following induction, and cell harvest, the cells were disrupted using either sonication or the BPER (Invitrogen) cell lysis system.
In vitro reactions were performed in a total volume of 200 ul and contained: 25 mM TrisHCl pH 7.5; 0.5 mM dithiothreitol; 1 mM glutathione; 0.05 mM or 0.1 mM MUAV; 10 ul of clarified cell extract used to initiate the reactions. Following incubation for 2.5 hours at room temperature, a 50 ul sample of the reactions was terminated using 150 uL of 300 mM glycine/NaOH buffer pH 9. The formation of 4 methylumbelliferone (4MU) upon hydrolysis of the aryl ether bond was monitored by the increase in fluorescence at λex=360 nm and λem=450 nm using a Spectramax UV/visible/fluorescent spectrophotometer.
The total protein concentrations of the cell lysates were determined using the BCA reagent system for protein quantification (Pierce).
With B4 the “fold more efficient than S. paucimobilis ligE beta-etherase enzyme” value was “approximately 75 fold”.

Same assay, conditions: MUAV substrate; result in words
With B5 the beta-etherase activity was “beta-etherase activity”. For B6, the beta-etherase activity was “beta-etherase activity”. With B4 the beta-etherase activity was “beta-etherase activity”. With B7 the beta-etherase activity was “beta-etherase activity”.

Test system: Saccharomyces cerevisiae
Experiment: not given
Conditions: result in words; cited from earlier work
In the case of `COc1ccc(C=O)cc1OC` [Veratraldehyde], the “antifungal activities against the yeast Saccharomyces cerevisiae” value (“antifungal activities” below) is given as “significant antifungal activities”. In the case of `O=C(O)C=Cc1ccccc1` [cinnamic acid], the “antifungal activities” value is listed as “significant antifungal activities”. In the case of `O=C(O)/C=C/c1cccc(O)c1` [m-coumaric acid], the “antifungal activities” value is listed as “significant antifungal activities”. In the case of `O=C(O)/C=C/c1ccccc1O` [o-coumaric acid], the “antifungal activities” value is given as “significant antifungal activities”. In the case of `O=C(O)/C=C/c1ccc(O)cc1` [p-coumaric acid], the “antifungal activities” value is listed as “significant antifungal activities”. In the case of `COc1cc(C(=O)O)ccc1O` [vanillic acid], the “antifungal activities” value is given as “significant antifungal activities”. In the case of `COc1cc(CCC(C)=O)ccc1O` [vanillylacetone], the “antifungal activities” value is given as “significant antifungal activities”.
